Patent US20220117920A1, “N-Aryl Benzenesulfonamides as Protonophores for the Treatment of Cancers, Metabolic Diseases and Traumatic Brain Injury” (University of Kentucky Research Foundation, priority 2019, published 2022)

Experiments:
Huh7 cells [1] = experiment: Western blot of autophagy markers LC3II and p62 in Huh7 cells; format: cell-based, human
Source text: (§1) Primary antibodies are described in Table 1.

PLC/PRF/5 cells [2] = experiment: Annexin V/PI apoptosis assay, PLC/PRF/5; format: cell-based, human; details: PLC/PRF/5, 48 h
Description: (§2) Apoptosis assay was performed in Huh7 and PLC/PRF/5 cells treated 48 h with DMSO vehicle control or the indicated doses of FH535, FH535-N alone or in combination with sorafenib. Cells were harvested and stained with the APC Annexin V apoptosis detection kit with PI (BioLegend, USA) according to the manufacturing instructions followed by flow cytometry analysis. Flow cytometry data was acquired with an LSRII instrument (BD-Biosciences) and analyzed with FlowJo software (Tree Star).

[3] = test system: Wnt/β-catenin target genes; experiment: Expression of downstream β-catenin targets in Huh7 cells (western blot, RT-qPCR); format: cell-based, human; details: Huh7, 36 h
Description: as §1
Total RNA was extracted with miRNeasy mini kit (Qiagen, Germany), and the corresponding cDNA was produced using iScript cDNA synthesis kit (BioRad, USA) from 1 μg of total RNA. Real time quantitative PCR (RT-qPCR) was performed using SsoAdvanced Universal SYBR Green supermix (BioRad, USA) with specific primers: p62 (SQSTM1: 5′-[…]-3′ (SEQ ID NO: 1) and 5′-[…]-3′ (SEQ ID NO: 2)); c-MYC (cMYC: 5′-[…]-3′ (SEQ ID NO: 3) and 5′-[…]-3′ (SEQ ID NO: 4)), Survivin (BIRC5, 5′-[…]-3′ (SEQ ID NO: 5) and 5′-[…]-3′ (SEQ ID NO: 6)), AXIN 2 (AXIN2: 5′-[…]-3′ (SEQ ID NO: 7) and 5′-[…]-3′ (SEQ ID NO: 8)), Cyclin D1 (5′-CCND1: […]-3′ (SEQ ID NO: 9) and 5′-[…]-3′ (SEQ ID NO: 10)), and b2-microglobulin (B2M: 5′-[…]-3′ (SEQ ID NO: 11) and 5′-[…]-3′ (SEQ ID NO: 12)). Transcript levels were normalized to β-actin or […] level as indicated using the ΔΔCt method.

Wnt/β-catenin pathway = experiment: TOP-Flash TCF4-dependent dual luciferase reporter assay in Huh7 cells; format: cell-based, human; details: Huh7, 10 mM LiCl
Description: Cells were plated at 1×10^5 cells/well in 24-well plates and transiently transfected with 490 ng of luciferase-reporter plasmid and 10 ng of phRL-TK per well using the Turbofect transfection reagent (Thermo Scientific, USA). After 5-6 h post-transfection, cells were treated with drug(s) or DMSO vehicle control for 36 h in the presence or absence of LiCl (10 mM). Luciferase assays were performed using the Dual Luciferase Assay System (Promega, USA) according to manufacturer's instructions.

Huh7 cells [4] = experiment: Seahorse mitochondrial stress test (OCR) in Huh7 cells; format: cell-based, human; details: Huh7, 24 h
Description: Oxygen Consumption Rates (OCR) were measured on an XF-96 Extracellular Flux Analyzer (Seahorse Bioscience) using the protocol and conditions optimized for HCC cells as previously described by our group. Briefly, the experiments were performed by seeding 10,000 and 20,000 Huh7 cells per well in XFe 96 well-plates 36 h before the experiment. Cells were treated for 24 h with FH535, FH535-N or vehicle control. In OCR experiments the media was supplemented with 25 mM Glucose and 1 mM Pyruvate just before the assay. After minimal incubation time (˜20-30 min in non-CO2 37° C. incubator) mitochondrial stress test was initiated. […] All reagents used in the Seahorse experiments were purchased from Sigma-Aldrich. Analyses of data were performed with Wave 2.2 software (Seahorse Bioscience), Excel (Microsoft Office 2013) and Prism 7.0 (GraphPad Software).

Hep3B cells = experiment: [3H]-thymidine incorporation assay, Hep3B; format: cell-based, human; details: 72 h
Description: (§3) Huh7, PLC/PRF/5 and Hep3B cells were plated in 96-well plates at 3000-4000 cells/well, treated with the concentrations indicated of FH535 or FH535-N, as single agents or in combination with sorafenib, and cultured for 72 h. ^3H-thymidine incorporation assay was performed as described previously.

[5] = test system: purified mitochondria from mouse liver; experiment: Uncoupling assay (OCR) using purified mitochondria from mouse livers; format: biochemical; details: 5 μM/1 μM
Description: All the steps were carried out at 4° C. or on ice. After mice were euthanized with CO2 followed by rapid decapitation, whole liver was quickly dissected out on a cold block and homogenized using a Teflon-glass dounce homogenizer containing isolation buffer (215 mM mannitol, 75 mM sucrose, 0.1% BSA, 20 mM HEPES, 1 mM EGTA, adjusted to pH 7.2 with KOH). The homogenate was transferred to a 2 mL-microcentrifuge tube and spun at 1,300×g for 3 min. The supernatant was transferred to a fresh 2 mL-microcentrifuge tube and spun at 13,000×g for 10 min. The supernatant was discarded, and the crude mitochondrial pellet was resuspended in a 1.5 mL-microcentrifuge tubes and pelleted again at 10,000×g for 10 min. The supernatant was discarded, and the mitochondrial pellets were resuspended in isolation buffer to obtain an approximate concentration ≥10 mg/mL of mitochondria. The absolute protein concentration was determined using a bicinchoninic acid (BCA) protein assay kit (Pierce, Cat #23,227) by recording absorbance at 560 nm on a Biotek Synergy HT plate reader (Winooski, Vt., USA).
Mitochondrial Bioenergetics Measurements. Mitochondrial bioenergetic measurements were carried out using a Seahorse XFe96 Extracellular Flux Analyzer (Agilent Technologies, Santa Clara, Calif., USA) to measure oxygen consumption rate (OCR) during various states of respiration. The OCR were measured in the presence of different substrates, inhibitors and uncouplers of the electron transport chain using previous methods with slight modifications. The stocks used for the assays were 500 mM pyruvate, 250 mM malate, and 30 mM adenosine diphosphate (ADP), and 1 M succinate (pH for all was adjusted to 7.2). […] Stock solutions of FH535, Y3, FH535-M, and Y3-M were prepared at 5 mM in 100% DMSO. As per the instructions from XFe96 Extracellular Flux kit, the sensor cartridge was hydrated with water and kept at 37° C. overnight before the experiment. One hour before the assay was conducted, water was removed from assay plates and XF calibrant was added before re-incubation. The injection ports A to D of the sensor cartridge were loaded with 25 μL of different combinations of the above substrates/inhibitors/uncouplers as follows. Before loading, the stocks were diluted appropriately in the respiration buffer (RB) (125 mM KCl, 0.1% BSA, 20 mM HEPES, 2 mM MgCl2, and 2.5 mM KH2PO4; pH 7.2) to get the final concentrations in the respiration chamber of 5 μM pyruvate, 2.5 μM malate, 10 μM of succinate and 1 μM ADP (via Port A), 1 μM oligomycin A (via Port B), 4 μM FCCP or 5 μM/1 μM FH535 or 5 μM/1 μM Y3 or 5 μM/1 μM FH535-M or 5 μM/1 μM Y3-M (via Port C) and 0.1 μM antimycin A (via Port D) starting with the initial volume of 175 μL RB in the chamber and diluting it to 9×, 10×, 11× and 12× with every injection through ports A to D, respectively. Once loaded, the sensor cartridge was placed into the Seahorse XFe96 Flux Analyzer for automated calibration. Seahorse Standard XFe96 assay plates were used for loading mitochondria. Initially total mitochondria were diluted to 6 μg/30 μL in RB and 30 μL was loaded in each well resulting in 6 μg mitochondria/well. The assay plates were centrifuged at 3,000 rpm for 4 min at 4° C. to adhere liver mitochondria at the bottom of the wells. After centrifugation, 145 μL RB (pre-incubated to 37° C.) was added without disturbing the mitochondrial layer to obtain a final volume of 175 μL per well. […]

Huh7 cells [6] = experiment: Cyto-ID autophagy detection assay in Huh7 cells; format: cell-based, human; details: Huh7, 40 h, ±50 μM CQ
Description: Autophagy responses were monitored with the Cyto-ID autophagy detection reagent 2.0 (Enzo Life Sciences, USA) according to the manufacturer's instructions. Huh7 and PLC/PRF/5 cells were seeded in 12-well plates and treated the following day with drugs or DMSO vehicle control at the indicated concentrations. CQ was added to the corresponding wells to a final concentration of 50 μM 8 h prior harvesting. After 40 h of drug treatment, cells were collected and assessed for viability with Zombie Violet dye solution (BioLegend, USA) followed by Cyto-ID autophagy detection reagent staining. Flow cytometry analyses were performed in a BD LSRII at the Flow Cytometry and Cell Sorting Shared Resource Facility of the University of Kentucky Markey Cancer Center and data were analyzed with the FlowJo Software version 7.6.5 (Tree Star, USA). The autophagic flux was quantified by subtracting the Cyto-ID MFI value of the sample without CQ from the Cyto-ID MFI value of the sample with CQ for each condition according to the formula: […]

PLC/PRF/5 cells [7] = experiment: [3H]-thymidine incorporation assay, PLC/PRF/5; format: cell-based, human; details: PLC/PRF/5, 72 h
Description: as §3

AMPK = experiment: Western blot of AMPK (T172) and ACC (S79) phosphorylation in CRC cells; format: cell-based, human; details: concentration not given
Description: Biochemistry. Western blotting: Cells were lysed in the appropriate volume of lysis buffer: 50 mM HEPES, 100 mM NaCl, 2 mM EDTA, 1% (v/v) glycerol, 50 mM NaF, 1 mM Na3VO4, 1% (v/v) Triton X-100, with protease inhibitors. The following antibodies were used: AMPK (Cell Signaling, 2532, Cell Signaling Technologies, Danver, Mass., USA), pAMPK (Cell Signaling, 2535), ACC (Cell Signaling, 3676), pACC (Cell Signaling, 11818), Actin (Sigma, A1978). Antibodies for Axin 2, c-Myc and Cyclin D1 have been described previously. ATP analysis: Cells growing in 12-well plates were treated with DMSO or inhibitors in DMSO solution and lysed by adding 1 mL boiling doubly distilled water. Supernatants were analyzed by luminescence using ATP Determination Kit (Invitrogen, A22066; Thermo Fisher Scientific, Waltham, Mass., USA).

Huh7 cells [8] = experiment: Annexin V/PI apoptosis assay, Huh7; format: cell-based, human; details: Huh7, 48 h
Description: as §2

Huh7 cells [9] = experiment: [3H]-thymidine incorporation assay, Huh7; format: cell-based, human; details: Huh7, 72 h
Description: as §3

Wnt signaling = experiment: Wnt reporter assay, stable HEK293T cell line containing TOPFlash reporter, LiCl-activated; format: cell-based, human; details: concentration not given
Source text: To identify novel Wnt regulators by high throughput screening, a stable HEK293T cell line containing the TOPFlash reporter was established. To identify Wnt inhibitors that targeted molecular events downstream of β-catenin, we treated these cells with lithium chloride to inhibit GSK3 and to stabilize β-catenin. […] We also validated the results by transient transfection of Super 8× TOPFlash or 8× FOPFlash into HEK293T cells. […] Since the results from the stable and transient transfection are compatible, we used stable cell lines for all of the other experiments.
Reporter assay. Wnt reporter assay and cell staining assay have been described previously. We subcloned Super 8×TOPFlash (provided by Professor Randall Moon, University of Washington) into the pGL4.83 [hRlucP/Puro] Vector and transfected it into HEK293T cells. A stable HEK293T cell line containing the TOPFlash reporter was established using puromycin selection. To screen Wnt inhibitors that block the downstream signaling transduction pathway of β-catenin, we treated the reporter cells with 25 mM LiCl to stabilize β-catenin and activate Wnt signaling. The potential Wnt inhibitors identified from screening were validated by transfecting TOPFlash or FOPFlash plus control renilla reporters into HEK293T cells, and then treating the cells with DMSO or testing compounds in DMSO solution. The Wnt signaling was activated by LiCl or Wnt3A treatment.

## O=[N+]([O-])c1ccc(NS(=O)(=O)c2cc(Cl)ccc2Cl)c2ccccc12 [Y3, 2,5-dichloro-N-(4-nitronaphthalen-1-yl)benzenesulfonamide]
Huh7 cells [1]; Huh7, 50 μM CQ 8 h
  accumulation of LC3II in the presence of CQ (autophagic flux, ΔLC3II): reduced at higher doses
Huh7 cells [1]; Huh7, 40 h
  LC3II protein levels: increased
  p62 protein levels: increased
PLC/PRF/5 cells [2]
  apoptosis (Annexin V/PI): significant increased rate of apoptosis
[3]
  expression of downstream Wnt/β-catenin target genes: reduced
Wnt/β-catenin pathway
  Wnt/β-catenin transcriptional activity (TOP-Flash): reduced the Wnt/β-catenin transcriptional activity
Huh7 cells [4]
  Proton Leak: enhanced Proton Leak
Hep3B cells
  cell proliferation (3H-thymidine incorporation): inhibited cell proliferation
[5]
  uncoupling: OCR blocked by oligomycin: increased OCR in dose-dependent manner
Huh7 cells [6]
  autophagic flux (Cyto-ID): reduction in the autophagic flux
PLC/PRF/5 cells [7]
  cell proliferation (3H-thymidine incorporation): inhibited cell proliferation
AMPK
  AMPK activation: strongly activated AMPK
Huh7 cells [8]
  apoptosis (Annexin V/PI): significant increased rate of apoptosis
Huh7 cells [9]
  cell proliferation (3H-thymidine incorporation): inhibited cell proliferation
Wnt signaling
  inhibition of Wnt signaling: inhibited Wnt signaling
